Laboratory results from patent publication US20240309043A1, “THERAPEUTICALLY ACTIVE STEROIDAL DERIVATIVES” (Organon R&D Finland Ltd., priority 2017, published 2024).

Columns and labels:
Type in all cases: biochemical
[1] = tested on: HSD1 enzyme that is expressed in rabbit placenta tissue; experiment: Inhibition of E1 to E2 conversion in rabbit placenta tissue homogenate; settings: inhibitor 100 nM, 30 nM estrone, 30 min
Description: The assay is based on an enzymatic reaction where HSD1 enzyme that is expressed in rabbit placenta tissue converts its natural substance estrone (E1) to estradiol (E2) in the presence of a co-factor β-NADPH.
Homogenization of rabbit placenta tissue: Weight a piece of the frozen tissue into a Precellys ck28 bead tube. Add buffer solution (20 mM KH2PO4 with 1 mM EDTA, pH 7,4) in 1:2 ratio (e.g. 300 mg of tissue:600 μl reaction buffer solution). Insert the bead tubes to homogenizer and homogenize 2×30 s. 6000 rpm. Centrifugated 5 min., 2600 rpm at +4° C. and collect supernatant. Aliquots of homogenate are stored in −80° C.
Assay—Inhibition of E1 to E2 conversion in rabbit placenta tissue: The reaction takes place in a buffer solution (20 mM KH2PO4 with 1 mM EDTA, pH 7,4), including appropriate amount of rabbit placenta homogenate, co-factor (1 mM β-NADPH), Substrate (30 nM estrone), labelled substrate as tracer (5 nM [^3H]-estrone). During a 30-minute incubation part of the estrone is converted to estradiol. The reaction is stopped by lowering the pH to 1 with 10% trichloro acetic acid (TCA). The substrate and conversion products are analyzed by HPLC and a Scintillation counter analyzer. Total radioactivity for estrone and estradiol were determined in each sample and percent conversion of estrone to estradiol was calculated according to the following formula:
Percent inhibition was calculated flowingly: % inhibition=100−% conversion.

[2] = molecular target: T1, recombinant human 17β-HSD1 (Homo sapiens, UniProt P14061); experiment: Inhibition of recombinant human 17β-HSD1; settings: inhibitor 100 nM; 30 nM estrone, 1 mM NADPH, 30 min RT
T1 construct: made in house; host or cells: Sd9 (Sf9) insect cells, baculovirus (Bac to Bac Expression System)
T1 sequence (P14061 1-328): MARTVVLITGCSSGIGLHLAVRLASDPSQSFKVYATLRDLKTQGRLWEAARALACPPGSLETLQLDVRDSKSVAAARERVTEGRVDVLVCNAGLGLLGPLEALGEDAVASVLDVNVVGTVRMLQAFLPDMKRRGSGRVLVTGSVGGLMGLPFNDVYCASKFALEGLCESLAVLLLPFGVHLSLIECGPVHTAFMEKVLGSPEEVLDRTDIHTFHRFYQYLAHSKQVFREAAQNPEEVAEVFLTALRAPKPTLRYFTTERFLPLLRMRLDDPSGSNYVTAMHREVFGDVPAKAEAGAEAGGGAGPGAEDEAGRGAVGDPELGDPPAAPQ
Description: 17β-HSD1 production and isolation: Recombinant baculovirus was generated by the “Bac to Bac Expression System” (Invitrogen). Recombinant bacmid was transfected to Sd9 insect cells using “Cellfectin Reagent” (Invitrogen). 60 h later cells were harvested; the microsomal fraction was isolated as described by Puranen, T. J., Poutanen, M. H., Peltoketo, H. E., Vihko, P. T. and Vihko, R. K. (1994) Site-directed mutagenesis of the putative active site of human 17 β-hydroxysteroid dehydrogenase type 1. Biochem. J. 304: 289-293. Aliquots were stored frozen until determination of enzymatic activity.
Assay—Inhibition of recombinant human 17β-HSD1: Recombinant protein (1 μg/ml) was incubated in 20 mM KH2PO4 pH 7.4 with 30 nM estrone (including 800 000 cpm/ml of ^3H-estrone) and 1 mM NADPH for 30 min at RT, in the presence of the potential inhibitor at concentrations 1 μM or 0.1 μM. Inhibitor stock solutions were prepared in DMSO. Final concentration of DMSO was adjusted to 1% in all samples. The enzyme reaction was stopped by addition of 10% trichloroacetic acid (final concentration). Samples were centrifuged in a microtiter plate at 4000 rpm for 10 min. Supernatants were applied to reverse phase HPLC on a Waters Symmetry C18 column, equipped with a Waters Sentry Guard column. Isocratic HPLC runs were performed at RT at a flow rate of 1 ml/min in acetonitrile:water 48:52 as running solvent. Radioactivity was monitored in the eluate by a Scintillation Analyzer. Total radioactivity for estrone and estradiol were determined in each sample and percent conversion of estrone to estradiol was calculated according to the following formula:
(§1) [formula] Percent inhibition was calculated flowingly: % inhibition=100−% conversion

[3] = molecular target: T2, recombinant human 17β-HSD2 (Homo sapiens, UniProt P37059); experiment: Inhibition of recombinant human 17β-HSD2; settings: inhibitor 1 μM; 50 nM estradiol, 1 mM NADH, 30 min RT
T2 construct: made in house; host or cells: Sd9 (Sf9) insect cells, baculovirus (Bac to Bac Expression System)
T2 sequence (P37059 1-387): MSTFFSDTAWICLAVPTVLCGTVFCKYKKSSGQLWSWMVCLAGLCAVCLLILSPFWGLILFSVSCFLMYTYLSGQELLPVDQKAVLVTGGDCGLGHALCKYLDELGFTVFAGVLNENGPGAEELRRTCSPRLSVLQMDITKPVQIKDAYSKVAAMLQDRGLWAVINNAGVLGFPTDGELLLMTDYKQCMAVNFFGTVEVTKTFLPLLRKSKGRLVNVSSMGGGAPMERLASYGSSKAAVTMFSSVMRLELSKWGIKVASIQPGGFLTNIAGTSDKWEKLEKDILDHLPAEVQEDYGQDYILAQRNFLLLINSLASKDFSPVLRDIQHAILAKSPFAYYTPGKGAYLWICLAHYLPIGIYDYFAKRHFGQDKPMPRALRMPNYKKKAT
Description: 17β-HSD2 production and isolation: Similarly to 17β-HSD1 the Recombinant baculovirus was generated by the “Bac to Bac Expression System” (Invitrogen). Recombinant bacmid was transfected to Sd9 insect cells using “Cellfectin Reagent” (Invitrogen). 60 h later cells were harvested and supernatant were fractionated by the following protocol: • cells were dissolved into 40 ml of A-buffer (40 mM TRIS, pH 8.0, 20% glycerol, 20 μM NAD, 0.4 mM PMSF, 150 mM NaCl, 0.5% dodecyl-β-maltoside+protease inhibitor cocktail) • cells were sonicated • lysate was incubated on ice for 15 min • lysate was centrifuged 5000 rpm 15 min, +4° C. • centrifugation of the supernatant 180 000 g 30 min, +4° C. • pellet was dissolved into 8 ml of A-buffer • not resuspended material was removed by centrifugation 5000 rpm min, +4° C. • the clear supernatant was divided into 100 μl aliquots and were stored frozen until determination of enzymatic activity.
The amount of 17β-HSD2 was analysed by immunoblotting and total protein concentration of each extract batch was determined.
Assay—Inhibition of recombinant human 17β-HSD2: Recombinant protein (4 μg/ml) was incubated in 20 mM KH2PO4 pH 8.5 with 50 nM estradiol (including 800 000 cpm/ml of ^3H-estradiol) and 1 mM NADH for 30 min at RT, in the presence of the potential inhibitor at concentrations 1 μM or 0.1 μM. Inhibitor stock solutions were prepared in DMSO. Final concentration of DMSO was adjusted to 1% in all samples. The enzyme reaction was stopped by addition of 10% trichloroacetic acid (final concentration). Samples were centrifuged in a microtiter plate at 4000 rpm for 10 min. Supernatants were applied to reverse phase HPLC on a Waters Symmetry C18 column, equipped with a Waters Sentry Guard column. Isocratic HPLC runs were performed at RT at a flow rate of 1 ml/min in acetonitrile:water 48:52 as running solvent. Radioactivity was monitored in the eluate by a Scintillation Analyzer. Total radioactivity for estrone and estradiol were determined in each sample and percent conversion of estradiol to estrone was calculated according to the following formula:
as §1

**Q.** What does the source list for `CCN(CC)C(=O)CC[C@@H]1C/C(=N\O)[C@@]2(C)CCC3c4ccc(Cl)cc4CCC3C12` (stereo partly drawn) [Compound 52, 3-((13S,15R,E)-3-chloro-17-(hydroxyimino)-13-methyl-7,8,9,11,12,13,14,15,16,17-decahydro-6H-cyclopenta[a]phenanthren-15-yl)-N,N-diethylpropanamide]?
**A.** Rabbit placenta inhibition % @100 nM [1]: 6%; inhibition at 0.1 µM [2]: 64%; inhibition at 1 µM [3]: 2%

**Q.** Which “Rabbit placenta inhibition % @100 nM” value [1] does the source give for `Cc1cc(NC(=O)CC[C@@H]2C/C(=N\O)[C@@]3(C)CCC4c5ccc(Cl)cc5CCC4C23)no1` (stereo partly drawn) [Compound 54, 3-((13S,15R,E)-3-chloro-17-(hydroxyimino)-13-methyl-7,8,9,11,12,13,14,15,16,17-decahydro-6H-cyclopenta[a]phenanthren-15-yl)-N-(5-methylisoxazol-3-yl)propanamide] here?
**A.** 10%

**Q.** And the inhibition at 0.1 µM [2]?
**A.** 47%

**Q.** What about the inhibition at 1 µM [3] of the same molecule?
**A.** 0%

**Q.** Which results are given for `C[C@]12CCC3c4ccc(Cl)cc4CCC3C1[C@H](CCC(=O)Nc1ccc(F)cn1)C/C2=N\O` (stereo partly drawn) [Compound 58, 3-((13S,15R,E)-3-chloro-17-(hydroxyimino)-13-methyl-7,8,9,11,12,13,14,15,16,17-decahydro-6H-cyclopenta[a]phenanthren-15-yl)-N-(5-fluoropyridin-2-yl)propanamide]?
**A.** Rabbit placenta inhibition % @100 nM [1]: 1%; inhibition at 0.1 µM [2]: 60%; inhibition at 1 µM [3]: 18%

**Q.** How did the “Rabbit placenta inhibition % @100 nM” value [1] turn out when `Cc1cccnc1NC(=O)CC[C@@H]1C/C(=N\O)[C@@]2(C)CCC3c4ccc(Cl)cc4CCC3C12` (stereo partly drawn) [Compound 60, 3-((13S,15R,E)-3-chloro-17-(hydroxyimino)-13-methyl-7,8,9,11,12,13,14,15,16,17-decahydro-6H-cyclopenta[a]phenanthren-15-yl)-N-(3-methylpyridin-2-yl)propanamide] was run?
**A.** 4%

**Q.** And the inhibition at 0.1 µM [2]?
**A.** 38%

**Q.** What about the inhibition at 1 µM [3] of the same molecule?
**A.** 2%

**Q.** `C[C@]12CCC3c4ccc(Cl)cc4CCC3C1[C@H](CCC(=O)Nc1ncccc1F)C/C2=N\O` (stereo partly drawn) [Compound 62, 3-((13S,15R,E)-3-chloro-17-(hydroxyimino)-13-methyl-7,8,9,11,12,13,14,15,16,17-decahydro-6H-cyclopenta[a]phenanthren-15-yl)-N-(3-fluoropyridin-2-yl)propanamide] was tested. Which “Rabbit placenta inhibition % @100 nM” value [1] did it give?
**A.** 3%

**Q.** And the inhibition at 0.1 µM [2]?
**A.** 45%

**Q.** And the “HSD2 inhibition % @1 μM” value [3]?
**A.** −8%

**Q.** Which “Rabbit placenta inhibition % @100 nM” value [1] does the source give for `Cc1cnc(NC(=O)CC[C@@H]2C/C(=N\O)[C@@]3(C)CCC4c5ccc(Cl)cc5CCC4C23)o1` (stereo partly drawn) [Compound 64, 3-((13S,15R,E)-3-chloro-17-(hydroxyimino)-13-methyl-7,8,9,11,12,13,14,15,16,17-decahydro-6H-cyclopenta[a]phenanthren-15-yl)-N-(5-methyloxazol-2-yl)propanamide] here?
**A.** 5%

**Q.** What about the inhibition at 0.1 µM [2] of the same molecule?
**A.** 26%

**Q.** And the inhibition at 1 µM [3]?
**A.** 0%

**Q.** With `COc1ccc(NC(=O)CC[C@@H]2C/C(=N\O)[C@@]3(C)CCC4c5ccc(Cl)cc5CCC4C23)nc1` (stereo partly drawn) [Compound 66, 3-((13S,15R,E)-3-chloro-17-(hydroxyimino)-13-methyl-7,8,9,11,12,13,14,15,16,17-decahydro-6H-cyclopenta[a]phenanthren-15-yl)-N-(5-methoxypyridin-2-yl)propanamide] as the molecule, how does the “Rabbit placenta inhibition % @100 nM” value [1] read?
**A.** 14%

**Q.** What about the inhibition at 0.1 µM [2] of the same molecule?
**A.** 72%

**Q.** And the inhibition at 1 µM [3]?
**A.** 23%

**Q.** What does the source list for `C[C@]12CCC3c4ccc(Cl)cc4CCC3C1[C@H](CCC(=O)Nc1ccccn1)C/C2=N\O` (stereo partly drawn) [Compound 68, 3-((13S,15R,E)-3-chloro-17-(hydroxyimino)-13-methyl-7,8,9,11,12,13,14,15,16,17-decahydro-6H-cyclopenta[a]phenanthren-15-yl)-N-(pyridin-2-yl)propanamide]?
**A.** Rabbit placenta inhibition % @100 nM [1]: 12%; inhibition at 0.1 µM [2]: 67%; inhibition at 1 µM [3]: 3%

**Q.** Which “Rabbit placenta inhibition % @100 nM” value [1] does the source give for `Cc1ccnc(NC(=O)CC[C@@H]2C/C(=N\O)[C@@]3(C)CCC4c5ccc(Cl)cc5CCC4C23)c1` (stereo partly drawn) [Compound 70, 3-((13S,15R,E)-3-chloro-17-(hydroxyimino)-13-methyl-7,8,9,11,12,13,14,15,16,17-decahydro-6H-cyclopenta[a]phenanthren-15-yl)-N-(4-methylpyridin-2-yl)propanamide] here?
**A.** −7%

**Q.** And the inhibition at 0.1 µM [2]?
**A.** 81%

**Q.** What about the inhibition at 1 µM [3] of the same molecule?
**A.** 4%

**Q.** Which “Rabbit placenta inhibition % @100 nM” value [1] does the source give for `C[C@]12CCC3c4ccc(Cl)cc4CCC3C1[C@H](CCC(=O)Nc1ccc(C#N)cn1)C/C2=N\O` (stereo partly drawn) [Compound 72, 3-((13S,15R,E)-3-chloro-17-(hydroxyimino)-13-methyl-7,8,9,11,12,13,14,15,16,17-decahydro-6H-cyclopenta[a]phenanthren-15-yl)-N-(5-cyanopyridin-2-yl)propanamide] here?
**A.** 26%

**Q.** What about the inhibition at 0.1 µM [2] of the same molecule?
**A.** 52%

**Q.** And the inhibition at 1 µM [3]?
**A.** 7%

**Q.** Which results are given for `C[C@]12CCC3c4ccc(Cl)cc4CCC3C1[C@H](CCC(=O)Nc1cnccn1)C/C2=N\O` (stereo partly drawn) [Compound 74, 3-((13S,15R,E)-3-chloro-17-(hydroxyimino)-13-methyl-7,8,9,11,12,13,14,15,16,17-decahydro-6H-cyclopenta[a]phenanthren-15-yl)-N-(pyrazin-2-yl)propanamide]?
**A.** Rabbit placenta inhibition % @100 nM [1]: 13%; inhibition at 0.1 µM [2]: 27%; inhibition at 1 µM [3]: 2%
